These results are taken from ChEMBL document CHEMBL1145675, “Antibacterial activity studies of flavonoids from Salvia palaestina” (1983).

In brackets after ≈: the same amount, converted by molar mass.

Holding throughout (format): functional
Assay [1] concerns Staphylococcus aureus. Kind of assay: Antimicrobial activity against Staphylococcus aureus ATCC 6538 by disc-diffusion method. On the technique in general: A growth-free zone around the sample is the usual read-out of agar diffusion tests.
The test system of assay [2] is Staphylococcus epidermidis. The experiment in a line: Antimicrobial activity against Staphylococcus epidermidis ATCC 12228 by disc-diffusion method.
In assay [3] the test system is Escherichia coli. The experiment in a line: Antimicrobial activity against Escherichia coli ATCC 8739 by disc-diffusion method.
In assay [4] the test system is Klebsiella pneumoniae. Kind of assay: Antimicrobial activity against Klebsiella pneumoniae UC57 by disc-diffusion method.
For assay [5], the system named is Proteus vulgaris. Kind of assay: Antimicrobial activity against Proteus vulgaris ATCC 8427 by disc-diffusion method.
The test system of assay [6] is Pseudomonas aeruginosa. The experiment in a line: Antimicrobial activity against Pseudomonas aeruginosa ATCC 1539 by tube dilution method.
The subject of assay [7] is Staphylococcus aureus. Kind of assay: Antimicrobial activity against Staphylococcus aureus ATCC 6538 by tube dilution method.
Assay [8] has as its system Staphylococcus epidermidis. The experiment in a line: Antimicrobial activity against Staphylococcus epidermidis ATCC 12228 by tube dilution method.
In assay [9] the test system is Escherichia coli. The experiment in a line: Antimicrobial activity against Escherichia coli ATCC 8739 by tube dilution method.
Assay [10] concerns Klebsiella pneumoniae. The experiment in a line: Antimicrobial activity against Klebsiella pneumoniae UC57 by tube dilution method.
Assay [11] concerns Proteus vulgaris. The experiment in a line: Antimicrobial activity against Proteus vulgaris ATCC 8427 by tube dilution method.
Assay [12] concerns Pseudomonas aeruginosa. The experiment in a line: Antimicrobial activity against Pseudomonas aeruginosa ATCC 1539 by disc-diffusion method.

As for `COc1ccc(-c2cc(=O)c3cc(OC)c(OC)cc3o2)cc1OC`, the “inhibition zone (IZ)” value (in the assay with Staphylococcus aureus [1]; in [2]; with Escherichia coli [3]; in the assay on Klebsiella pneumoniae [4]; in the assay with Proteus vulgaris [5]) was <7 mm in each case. Also, the minimum bactericidal concentration (MBC) against Pseudomonas aeruginosa [6] is 250 µg/mL (≈ 730 µM). In the assay on Pseudomonas aeruginosa [6], this molecule displayed an MIC of 125 µg/mL (≈ 365 µM).

On to `COc1cc2oc(-c3ccc(O)cc3)cc(=O)c2c(O)c1OC` [CIRSIMARITIN], for which the MBC in the assay with Staphylococcus aureus [7] worked out at 125 µg/mL (≈ 398 µM); in assay [8], 125 µg/mL (≈ 398 µM); against Escherichia coli [9], 90 µg/mL (≈ 286 µM); against Klebsiella pneumoniae [10] it was 90 µg/mL (≈ 286 µM); in the assay on Proteus vulgaris [11], 125 µg/mL (≈ 398 µM); in the assay with Pseudomonas aeruginosa [6] it was 125 µg/mL (≈ 398 µM). Also, the MIC against Staphylococcus aureus [7] worked out at 31.2 µg/mL (≈ 99.4 µM); in [8] it was 62.5 µg/mL (≈ 199 µM); with Escherichia coli [9] it was 45 µg/mL (≈ 143 µM); in the assay with Klebsiella pneumoniae [10] it was 45 µg/mL (≈ 143 µM); in the assay with Proteus vulgaris [11], 31.2 µg/mL (≈ 99.4 µM); in the assay with Pseudomonas aeruginosa [6] it was 31.2 µg/mL (≈ 99.4 µM).

For `O=c1cc(-c2ccc(O)c(O)c2)oc2cc(O[C@@H]3O[C@H](CO)[C@@H](O)[C@H](O)[C@H]3O)cc(O)c12` [GALUTEOLIN], the “inhibition zone (IZ)” value (in the assay on Staphylococcus aureus [1]; in assay [2]; in the assay with Klebsiella pneumoniae [4]; with Proteus vulgaris [5]; with Pseudomonas aeruginosa [12]) was <7 mm throughout. Moreover, the MBC against Escherichia coli [9] worked out at 500 µg/mL (≈ 1120 µM). The molecule further yielded an MIC in the assay on Escherichia coli [9] of 250 µg/mL (≈ 558 µM).

Turning to `O=c1cc(-c2ccc(O)c(O)c2)oc2cc(O)cc(O)c12` [LUTEOLIN], the “inhibition zone (IZ)” value (with Staphylococcus aureus [1]; in assay [2]; in the assay on Proteus vulgaris [5]) was <7 mm in each case. In addition, the MBC against Escherichia coli [9], against Klebsiella pneumoniae [10] and against Pseudomonas aeruginosa [6] was 500 µg/mL (≈ 1750 µM) each time. The MIC against Escherichia coli [9], in the assay on Klebsiella pneumoniae [10] and in the assay on Pseudomonas aeruginosa [6] was 125 µg/mL (≈ 437 µM) in each case.

The MBC is the lowest tested concentration that kills the bacteria rather than only halting them. A lower MBC goes with more potent killing. Usually MIC stands for the least concentration at which growth counts as inhibited. The low end stands for a more susceptible organism, the high end for a less susceptible organism.
